Literature values, collected in patent US20070286899A1, “Photo-composition for the treatment of joint diseases” (priority 2004, published 2007).

Tested on: patients who use methotrexate

patients who develop gastrointestinal problems such as diarrhea and nausea: 60%
SMILES: CN(Cc1cnc2nc(N)nc(N)c2n1)c1ccc(C(=O)N[C@@H](CCC(=O)O)C(=O)O)cc1 [methotrexate]
